Measurements from ChEMBL document CHEMBL1128160, “An attempt to synthesize prostanoid thromboxane A2 antagonists with an additional prostacyclin like quality” (Bioorg Med Chem Lett, 1995).

What was measured:
[1] = target: T1, Thromboxane A2 receptor (Homo sapiens) (UniProt P21731); assay: Competition factor for Thromboxane A2 receptor binding affinity CF = (IC50-test)/(IC50-standard)
T1 sequence (whole entry): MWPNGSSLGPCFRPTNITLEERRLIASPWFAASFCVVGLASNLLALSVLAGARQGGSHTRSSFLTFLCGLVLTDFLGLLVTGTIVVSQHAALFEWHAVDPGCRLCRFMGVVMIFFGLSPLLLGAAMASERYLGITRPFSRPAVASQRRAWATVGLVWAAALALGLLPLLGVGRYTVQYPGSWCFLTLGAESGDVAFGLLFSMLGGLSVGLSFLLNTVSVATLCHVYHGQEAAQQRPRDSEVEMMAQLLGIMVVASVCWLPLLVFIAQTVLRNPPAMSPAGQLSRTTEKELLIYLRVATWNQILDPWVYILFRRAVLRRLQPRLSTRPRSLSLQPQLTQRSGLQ

Homo sapiens = species: Homo sapiens; assay: Inhibition of ADP-induced aggregation of human platelet rich plasma; assay type: functional
[2] = target: T1, Thromboxane A2 receptor (Homo sapiens); assay: Competition factor was evaluated for Thromboxane A2 receptor binding affinity CF = (IC50-test)/(IC50-standard)
[3] = target: T1, Thromboxane A2 receptor (Homo sapiens); assay: Competition factor was evaluated for Thromboxane A2 receptor binding affinity CF = (IC50-test)/(IC50-standard) by using [3H]iloprost agonist at 10 nM

With O=C(O)CCC/C=C\C[C@H]1/C(=N/OC(c2ccccc2)c2ccccc2)CC[C@@H]1NS(=O)(=O)c1ccc(F)cc1 the CF [1] was 6.9 and the IC50 (Homo sapiens) was 17000 nM.
In the case of Cc1ccc(S(=O)(=O)N[C@@H]2CC[C@@H](O)[C@H]2C/C=C\CCCC(=O)O)cc1, the CF [1] is reported as 340 and the IC50 (Homo sapiens) is reported as 5800 nM.
In the case of Cc1ccc(S(=O)(=O)N[C@H]2CC[C@H](O)[C@@H]2C/C=C\CCC(=O)O)cc1, the CF [1] is reported as 135 and the IC50 (Homo sapiens) is reported as 2500 nM.
O=C(O)CCC/C=C\C[C@@H]1[C@@H](NS(=O)(=O)c2ccc(Cl)cc2)CC[C@@H]1O was tested, and the CF [1] was 0.68 and the IC50 (Homo sapiens) was 190 nM.
Work on O=C(O)CC/C=C\C[C@@H]1[C@@H](NS(=O)(=O)c2ccc(Cl)cc2)CC[C@@H]1O yielded a CF [1] of 31 and an IC50 (Homo sapiens) of 1800 nM.
Compound O=C(O)CCC/C=C\C[C@H]1/C(=N/OCC2CCCCC2)CC[C@@H]1NS(=O)(=O)c1ccc(Cl)cc1 has a CF [2] of 0.62 and an IC50 (Homo sapiens) of 1700 nM.
For Cc1ccc(S(=O)(=O)N[C@H]2CC/C(=N\OCC3CCCCC3)[C@@H]2C/C=C\CCCC(=O)O)cc1, the CF [1] was 1 and the IC50 (Homo sapiens) was 600 nM.
O=C(O)CCC/C=C\C[C@H]1/C(=N/OCc2ccc(C(F)(F)F)cc2)CC[C@@H]1NS(=O)(=O)c1ccc(Cl)cc1 gave a CF [1] of 0.07 and an IC50 (Homo sapiens) of 200 nM.
In the case of O=C(O)CCC/C=C\C[C@H]1/C(=N/OCc2ccc(C(F)(F)F)cc2)CC[C@@H]1NS(=O)(=O)c1ccc(F)cc1, the CF [1] is reported as 0.13 and the IC50 (Homo sapiens) is reported as 620 nM.
In the case of Cc1ccc(S(=O)(=O)N[C@H]2CC[C@H](O)[C@@H]2C/C=C\CCCC(=O)O)cc1, the CF [1] is reported as 7 and the IC50 (Homo sapiens) is reported as 500 nM.
Cc1ccc(S(=O)(=O)N[C@H]2CC/C(=N\OC(c3ccccc3)c3ccccc3)[C@@H]2C/C=C\CCCC(=O)O)cc1 was tested, and the CF [1] was 4.5 and the IC50 (Homo sapiens) was 5600 nM.
For O=C(O)CCC/C=C\C[C@H]1C(=O)CC[C@@H]1NS(=O)(=O)c1ccc(Cl)cc1, the CF [1] was 2.6 and the IC50 (Homo sapiens) was 640 nM.
Compound O=C(O)CCC/C=C\C[C@H]1C(=O)CC[C@@H]1NS(=O)(=O)c1ccc(F)cc1 has a CF [1] of 6.4 and an IC50 (Homo sapiens) of 500 nM.
In the case of O=C(O)CCC/C=C\C[C@@H]1[C@H](O)CC[C@H]1NS(=O)(=O)c1ccc(F)cc1, the CF [1] is reported as 26 and the IC50 (Homo sapiens) is reported as 6000 nM.
For C[C@@H]1CC/C(=N\OC(c2ccccc2)c2ccccc2)[C@H]1C/C=C\CCCC(=O)O, the CF [1] was 175, the IC50 (Homo sapiens) was 800 nM and the CF [3] was 25.
For Cc1ccc(S(=O)(=O)N[C@H]2CCC(=O)[C@@H]2C/C=C\CCCC(=O)O)cc1, the CF [1] was 6.5 and the IC50 (Homo sapiens) was 670 nM.
Work on O=C(O)CCC/C=C\C[C@@H]1[C@@H](NS(=O)(=O)c2ccc(F)cc2)CC[C@@H]1O yielded a CF [1] of 2.1 and an IC50 (Homo sapiens) of 640 nM.
Compound O=C(O)CCC/C=C\C[C@H]1/C(=N/OC(c2ccccc2)c2ccccc2)CC[C@@H]1NS(=O)(=O)c1ccc(Cl)cc1 has a CF [1] of 4 and an IC50 (Homo sapiens) of 17000 nM.
O=C(O)CCC/C=C\C[C@@H]1[C@H](O)CC[C@H]1NS(=O)(=O)c1ccc(Cl)cc1 was tested, and the CF [1] was 85 and the IC50 (Homo sapiens) was 2200 nM.
Work on Cc1ccc(S(=O)(=O)N[C@H]2CC/C(=N\OCc3ccc(C(F)(F)F)cc3)[C@@H]2C/C=C\CCCC(=O)O)cc1 yielded a CF [1] of less than 1 and an IC50 (Homo sapiens) of 180 nM.
O=C(O)CCC/C=C\C[C@H]1/C(=N/OCC2CCCCC2)CC[C@@H]1NS(=O)(=O)c1ccc(F)cc1 was tested, and the CF [1] was 0.5 and the IC50 (Homo sapiens) was 1800 nM.
Compound O=C(O)CC/C=C\C[C@@H]1[C@@H](NS(=O)(=O)c2ccc(F)cc2)CC[C@@H]1O has a CF [1] of 200 and an IC50 (Homo sapiens) of 1600 nM.
